This passage reports IC50 results from US20170114070A1, “INHIBITORS OF THE WNT SIGNALLING PATHWAYS” (Bayer Pharma Aktiengesellschaft, priority 2014, published 2017).

In experiment [1] the test system is constitutive active Wnt pathway (HCT116 TOPFlash). Briefly: Cellular reporter assay, HCT116 Super TopFlash (constitutive active Wnt pathway). The class given is cell-based. The following applies: Homo sapiens, HCT-116; HCT116 stably transfected with Super TopFlash vector; 36 hours incubation; luciferase expression. As for the experimental part: In order to discover and characterize small molecules which inhibit the constitutive active colorectal cancer cell (CRC) Wnt pathway, a cellular reporter assay was employed. The corresponding assay cell was generated by transfection of the colorectal cancer cell line HCT116 (ATCC, #CCL-247) with the Super TopFlash vector (Morin, Science 275, 1997, 1787-1790; Molenaar et al., Cell 86 (3), 1996, 391-399). The HCT116 cell line is cultivated at 37° C. and 5% CO2 in DMEM/F-12 (Life Technologies, #11320-074), supplemented with 2 mM glutamine, 20 mM HEPES, 1.4 mM pyruvate, 0.15% Na-bicarbonate and 10% foetal bovine serum (GIBCO, #10270), this cancer cell line is pathophysiological relevant since it carries a deletion of position S45 in the β-catenin gene, leading to constitutive active Wnt signaling. Stable transfectants were generated by cotransfection with pcDNA3 and selection of stable transfected cells with 1 mg/ml G418.
(§1) In a parallel approach, HCT116 cells were cotransfected with the FOP control vector and pcDNA3. The FOP vector is identical to the TOP construct, but it contains instead of functional TCF elements a randomized, non-functional sequence. For this transfection a stable transfected cell line was generated as well.
(§2) In preparation of the assay, the two cell lines were plated 24 hours before at 10000 cells per well of a 384 micro titre plate (MTP) in 30 μL growth medium. Selective inhibitory activity for small molecules on the mutated Wnt pathway was determined after parallel incubation of both (TOP and FOP) HCT116 reporter cell lines with a compound dilution series from 50 μM to 15 nM in steps of 3.16-fold dilutions in CAFTY buffer (130 mM NaCl, 5 mM KCl, 20 mM HEPES, 1 mM MgCl2, 5 mM NaHCO3, pH 7.4) containing 2 mM Ca^2+ and 0.01% BSA. The compounds were thereby serially prediluted in 100% DMSO and thereafter in addition 50 fold into the CAFTY compound dilution buffer (described above). From this dilution 10 μL were added to the cells in 30 μL growth medium and incubated for 36 hours at 37° C. and 5% CO2. Thereafter luciferase assay buffer (1:1 mixture of luciferase substrate buffer (20 mM Tricine, 2.67 mM MgSO4, 0.1 mM EDTA, 4 mM DTT, 270 μM Coenzyme A, 470 μM Luciferin, 530 μM ATP, ph adjusted to pH 7.8 with a sufficient volume of 5M NaOH) and Triton buffer (30 mL Triton X-100, 115 mL glycerol, 308 mg Dithiothreitol, 4.45 g Na2HPO4.2H2O, 3.03 g TRIS HCl, ad 1 l H20, pH 7.8) was added as equal volume to the compound solution on the cells to determine luciferase expression as a measure of Wnt signaling activity in a luminometer.
In general terms: Reporter assays use an easily measured gene product as a stand-in for the process of interest.

Experiment [2] relates to HCT116 FOPFlash (FOP control vector, non-functional TCF elements). Briefly: Cellular control reporter assay, HCT116 FOP control vector. The note with it: Homo sapiens, HCT-116; HCT116 stably transfected with FOP control vector; 36 hours incubation; luciferase expression; dilution series from 50 μM. It counts as cell-based. As to the method:
as §1, §2

Where a name gives a salt, the structure may show the parent alone.

The term IC50 denotes the concentration at which inhibition is half-maximal. Low readings indicate inhibition by little substance, high ones a need for much substance.

Consider `O=C(CN1CCOCC1)Nc1cc(C(=O)Nc2ncc(-c3ccccc3)cn2)ccc1OC1CC1` [Example 34, 4-(cyclopropyloxy)-3-[(morpholin-4-ylacetyl)amino]-N-(5-phenylpyrimidin-2-yl)benzamide], for which the values for the IC50 in experiment [1] and in experiment [2] were 12.6 µM and ≥ 50 µM, respectively.
Regarding `O=C(CN1CCOCC1)Nc1cc(C(=O)Nc2cnc(-c3cccc(Cl)c3)cn2)ccc1OC(F)(F)F` [Example 35, N-[5-(3-chlorophenyl)pyrazin-2-yl]-3-[(morpholin-4-ylacetyl)amino]-4-(trifluoromethoxy)benzamide], the figures for the IC50 in experiment [1] and in experiment [2] were 0.116 µM and ≥ 5.77 µM, respectively.
The matching figures for `CN1CCN(CC(=O)Nc2cc(C(=O)Nc3cnc(-c4cccnc4F)cn3)ccc2OC(F)(F)F)CC1` [Example 36, N-[5-(2-fluoropyridin-3-yl)pyrazin-2-yl]-3-{[(4-methylpiperazin-1-yl)acetyl]amino}-4-(trifluoromethoxy)benzamide hydrochloride]: 0.12 µM and ≥ 50 µM.
For `CN1CCN(CC(=O)Nc2cc(C(=O)Nc3cnc(-c4cnc(N)nc4)cn3)ccc2OC(F)(F)F)CC1` [Example 37, N-[5-(2-aminopyrimidin-5-yl)pyrazin-2-yl]-3-{[(4-methylpiperazin-1-yl)acetyl]amino}-4-(trifluoromethoxy)benzamide], the IC50 in experiment [1] was 0.223 µM; in experiment [2] it was ≥ 50 µM.
As for `O=C(CN1CCOCC1)Nc1cc(C(=O)Nc2cnc(-c3ccccc3)cn2)ccc1OC1CC1` [Example 38, 4-(cyclopropyloxy)-3-[(morpholin-4-ylacetyl)amino]-N-(5-phenylpyrazin-2-yl)benzamide], the IC50 is 0.123 µM in experiment [1] and ≥ 50 µM in experiment [2].
For `Cc1ccccc1-c1cnc(NC(=O)c2ccc(OC(F)(F)F)c(NC(=O)CN3CCOCC3)c2)cn1` [Example 39, N-[5-(2-methylphenyl)pyrazin-2-yl]-3-[(morpholin-4-ylacetyl)amino]-4-(trifluoromethoxy)benzamide], the IC50 worked out at 0.225 µM in experiment [1] and 24.9 µM in experiment [2].
In the case of `CN1CCN(CC(=O)Nc2cc(C(=O)Nc3cnc(-c4ccccn4)cn3)ccc2OC(F)(F)F)CC1` [Example 40, 3-{[(4-methylpiperazin-1-yl)acetyl]amino}-N-[5-(pyridin-2-yl)pyrazin-2-yl]-4-(trifluoromethoxy)benzamide], the IC50 was 0.153 µM in experiment [1] and ≥ 50 µM in experiment [2].
On to `CN1CCN(CC(=O)Nc2cc(C(=O)Nc3cnc(-c4ccccc4F)cn3)ccc2OC(F)(F)F)CC1` [Example 41, N-[5-(2-fluorophenyl)pyrazin-2-yl]-3-{[(4-methylpiperazin-1-yl)acetyl]amino}-4-(trifluoromethoxy)benzamide], for which the values for the IC50 in experiment [1] and in experiment [2] were 0.225 µM and ≥ 50 µM, respectively.
On to `Cc1ccccc1-c1cnc(NC(=O)c2ccc(OC(F)(F)F)c(NC(=O)CN3CCN(C)CC3)c2)cn1` [Example 42, N-[5-(2-methylphenyl)pyrazin-2-yl]-3-{[(4-methylpiperazin-1-yl)acetyl]amino}-4-(trifluoromethoxy)benzamide], for which the IC50 in experiment [1] is 0.12 µM; in experiment [2] it was ≥ 50 µM.
Take `CN1CCN(CC(=O)Nc2cc(C(=O)Nc3cnc(-c4cc(F)cc(F)c4)cn3)ccc2OC(F)(F)F)CC1` [Example 43, N-[5-(3,5-difluorophenyl)pyrazin-2-yl]-3-{[(4-methylpiperazin-1-yl)acetyl]amino}-4-(trifluoromethoxy)benzamide]: the IC50 in experiment [1] was found to be 0.155 µM; in experiment [2], 27.6 µM.
In the case of `CN1CCN(CC(=O)Nc2cc(C(=O)Nc3cnc(-c4ccccc4Cl)cn3)ccc2OC(F)(F)F)CC1` [Example 44, N-[5-(2-chlorophenyl)pyrazin-2-yl]-3-{[(4-methylpiperazin-1-yl)acetyl]amino}-4-(trifluoromethoxy)benzamide], the IC50 in experiment [1] is 16.8 µM; in experiment [2] it was ≥ 50 µM.
The matching figures for `Cc1ccncc1-c1cnc(NC(=O)c2ccc(OC(F)(F)F)c(NC(=O)CN3CCOCC3)c2)cn1` [Example 45, N-[5-(4-methylpyridin-3-yl)pyrazin-2-yl]-3-[(morpholin-4-ylacetyl)amino]-4-(trifluoromethoxy)benzamide]: 16.7 µM and ≥ 50 µM.
For `Nc1ccc(-c2cnc(NC(=O)c3ccc(OC(F)(F)F)c(NC(=O)CN4CCOCC4)c3)cn2)cn1` [Example 46, N-[5-(6-aminopyridin-3-yl)pyrazin-2-yl]-3-[(morpholin-4-ylacetyl)amino]-4-(trifluoromethoxy)benzamide], the IC50 in experiment [1] was 16.8 µM; in experiment [2], ≥ 50 µM.
On to `Cc1cccc(-c2cnc(NC(=O)c3ccc(OC(F)(F)F)c(NC(=O)CN4CCOCC4)c3)cn2)c1` [Example 47, N-[5-(3-methylphenyl)pyrazin-2-yl]-3-[(morpholin-4-ylacetyl)amino]-4-(trifluoromethoxy)benzamide], for which the IC50 in experiment [1] came to 0.24 µM; in experiment [2], 4.1 µM.
Consider `CN1CCN(CC(=O)Nc2cc(C(=O)Nc3cnc(-c4cccc(Cl)c4)cn3)ccc2OC(F)(F)F)CC1` [Example 48, N-[5-(3-chlorophenyl)pyrazin-2-yl]-3-{[(4-methylpiperazin-1-yl)acetyl]amino}-4-(trifluoromethoxy)benzamide], for which the IC50 in experiment [1] amounted to 0.26 µM; in experiment [2] it was 7.73 µM.
For the compound `CN1CCN(CC(=O)Nc2cc(C(=O)Nc3cnc(-c4cncnc4)cn3)ccc2OC(F)(F)F)CC1` [Example 49], the IC50 in experiment [1] was 0.26 µM; in experiment [2], ≥ 50 µM.
For `O=C(CN1CCOCC1)Nc1cc(C(=O)Nc2cnc(-c3ccccn3)cn2)ccc1OC1CC1` [Example 50, 4-(cyclopropyloxy)-3-[(morpholin-4-ylacetyl)amino]-N-[5-(pyridin-2-yl)pyrazin-2-yl]benzamide], in that order: 16.9 µM and ≥ 50 µM.
For `O=C(CN1CCOCC1)Nc1cc(C(=O)Nc2cnc(-c3ccncc3)cn2)ccc1OC(F)(F)F` [Example 51, 3-[(morpholin-4-ylacetyl)amino]-N-[5-(pyridin-4-yl)pyrazin-2-yl]-4-(trifluoromethoxy)benzamide], in that order: 0.483 µM and ≥ 50 µM.
For `O=C(CN1CCOCC1)Nc1cc(C(=O)Nc2cnc(-c3cnccn3)cn2)ccc1OC1CC1` [Example 52, N-(2,2′-bipyrazin-5-yl)-4-(cyclopropyloxy)-3-[(morpholin-4-ylacetyl)amino]benzamide], in that order: 0.372 µM and 44.7 µM.
Regarding `Nc1ncc(-c2cnc(NC(=O)c3ccc(OC(F)(F)F)c(NC(=O)CN4CCOCC4)c3)cn2)cn1` [Example 53, N-[5-(2-aminopyrimidin-5-yl)pyrazin-2-yl]-3-[(morpholin-4-ylacetyl)amino]-4-(trifluoromethoxy)benzamide], the IC50 is 0.83 µM in experiment [1] and 9.5 µM in experiment [2].
With `CN1CCN(CC(=O)Nc2cc(C(=O)Nc3cnc(-c4cnccn4)cn3)ccc2OC(F)(F)F)CC1` [Example 54, N-(2,2′-bipyrazin-5-yl)-3-{[(4-methylpiperazin-1-yl)acetyl]amino}-4-(trifluoromethoxy)benzamide], the figures for the IC50 in experiment [1] and in experiment [2] were 1.35 µM and ≥ 50 µM, respectively.
Turning to `Nc1cc(-c2cnc(NC(=O)c3ccc(OC(F)(F)F)c(NC(=O)CN4CCOCC4)c3)cn2)ccn1` [Example 55, N-[5-(2-aminopyridin-4-yl)pyrazin-2-yl]-3-[(morpholin-4-ylacetyl)amino]-4-(trifluoromethoxy)benzamide], the IC50 came out at 17.2 µM in experiment [1] and 26.2 µM in experiment [2].
Regarding `CN1CCN(CC(=O)Nc2cc(C(=O)Nc3cnc(-c4ccnc(N)c4)cn3)ccc2OC(F)(F)F)CC1` [Example 56, N-[5-(2-aminopyridin-4-yl)pyrazin-2-yl]-3-{[(4-methylpiperazin-1-yl)acetyl]amino}-4-(trifluoromethoxy)benzamide], the values for the IC50 in experiment [1] and in experiment [2] were 2 µM and ≥ 50 µM, respectively.
Consider `O=C(CN1CCOCC1)Nc1cc(C(=O)Nc2cnc(-c3cnccn3)cn2)ccc1OC(F)(F)F` [Example 57, N-(2,2′-bipyrazin-5-yl)-3-[(morpholin-4-ylacetyl)amino]-4-(trifluoromethoxy)benzamide], for which the IC50 in experiment [1] was 2.4 µM; in experiment [2], ≥ 50 µM.
